Experimental data published in patent US8178506B2, “Oligomeric compounds and compositions for use in modulation of small non-coding RNAs” (Regulus Therapeutics Inc., priority 2003, dated 2012).
Where “and” joins values, the source holds several entries; their conditions need not be identical. Equal values may be shown once. In the oligonucleotide strings, read from the 5' end, every base follows the letter of its sugar. An asterisk marks phosphorothioate; unmarked linkages are phosphodiester. Other units and linkages are bracketed, terminal groups are in braces. A string of capitals states the bases alone. e = 2'-O-(2-methoxyethyl) (MOE); [5mC] = 5-methylcytosine; d = 2'-deoxy (DNA)

System: HeLa cells
Assay: Cell cycle assay in HeLa cells
Assay type: cell-based, human
Conditions: for phase of the cell cycle in which cells arrest or delay / chromosome missegregation (subG1 or aneuploid DNA content): HeLa; for % cells in cell cycle phase: G1 / % cells in cell cycle phase: G2/M / % cells in cell cycle phase: S / % cells in cell cycle phase: aneuploid / % cells in cell cycle phase: subG1: 48 hours after treatment, relative to untreated control (UTC=100); for chromosome missegregation (subG1 or aneuploid DNA content): 24-hour and 48-hour timepoints
Procedure: In some embodiments, HeLa cells were plated on collagen-coated 24-well plates at 50,000-60,000 cells per well, and allowed to attach to wells overnight. In some embodiments, HeLa cells were synchronized by double thymidine block (cells were washed three times with PBS, then grown in 10% FBS containing 2 mM thymidine; then 19 hours later, cells were washed three times in PBS, 10% FBS for 9 hours; cells were then incubated in 10% FBS, 2 mM thymidine for 15 hours; then washed three times with PBS, 10% FBS and samples were taken every two hours over a 16 hour period). A portion of each time sample was fixed with ethanol and treated with propidium iodide and subjected to FACs analysis for determination of the percentage of cells in each phase of the cell cycle. […] HeLa cells treated with 10 μM cisplatin or 100 ng/ml nocodazole were used as controls for G1-phase and late G2/M-phases, respectively. From the remaining portion of each of these time samples, total RNA was isolated and used to assess the expression of cell cycle marker mRNAs using the real-time RT-PCR methods and/or used to screen microarrays to assess the expression of miRNAs over the course of the cell cycle. It was observed that several miRNAs are expressed in a cell-cycle-dependent manner. Shown in Table 30 are the mRNA levels of the E2F1 transcription factor and topoisomerase 2A (Top2A), which vary over the course of the cell cycle and can be used for comparison to the experimental groups for the confirmation of cell cycle phase. Data are an average of three trials.
In some embodiments, HeLa cells were also treated with oligomeric compounds targeting miRNAs. […] The medium was removed from the plates. Each well was washed in 250 μl of PBS. […] Control cells received LIPOFECTIN™ only. […] After 24 hours (Table 31) or 48 hours (Table 32), cells were prepared for flow cytometry analysis to generate a cell cycle profile. The cell cycle profile was analyzed with the ModFit program (Verity Software House, Inc., Topsham Me.).
The random-mer ISIS 29848 (SEQ ID NO: 737) was used as a negative control, and ISIS 183891 (SEQ ID NO: 847), targeting kinesin-like 1/Eg5, was included as a positive control. Data are expressed as percentage of cells in each phase relative to the untreated control (UTC); values above 100 are considered to indicate a delay or arrest in that phase of the cell cycle. […] In some cases, the same oligomeric compound was tested in repeated experiments.
In accordance with the present invention, certain oligomeric compounds targeting miRNAs were selected for dose response studies. Using the cell cycle assay described above, the cell cycle profiles of HeLa or A549 cells treated with varying concentrations of oligomeric compounds of the present invention were assessed.
HeLa cells were treated with 25-, 50-, 100- or 150 nM of the oligomeric compounds ISIS
Numbers 327902 (SEQ ID NO: 320) and 328383 (SEQ ID NO: 492), both targeted against mir-192, and ISIS 327905 (SEQ ID NO: 323), targeting mir-205, and ISIS 328403 (SEQ ID NO: 512), targeting mir-106. Cells treated with increasing concentrations of oligomeric compounds were compared to untreated cells, to assess the dose-dependency of the observed delay or arrest. The random-mer ISIS 29848 was used as a negative control. Cells were prepared for flow cytometry 48-hours after oligonucleotide treatment, as described, supra.

[1] = HeLa cells, 150 nM oligomeric compound, 24 hours, relative to untreated control (UTC = 100)
[2] = HeLa cells, 150 nM oligomeric compound
[3] = HeLa cells, 150 nM, 48 hours, relative to untreated control

Substance | phase of the cell cycle in which cells arrest or delay (150 nM, both 24 and 48 hours) | % cells aneuploid [1] | % cells in cell cycle phase G1 [1] | % cells in cell cycle phase G2/M [1] | % cells in cell cycle phase S [1] [%] | % cells in cell cycle phase subG1 [1] | % cells in cell cycle phase: G1 [2] | % cells in cell cycle phase: G2/M [2] | % cells in cell cycle phase: S [2] | % cells in cell cycle phase: aneuploid [2] | % cells in cell cycle phase: subG1 [2] [%] | phase of the cell cycle in which cells arrest or delay (150 nM, 48 hours) | phase of the cell cycle in which cells arrest or delay (150 nM, time point not stated) | % cells in cell cycle phase G1 [3] [%] | % cells in cell cycle phase G2/M [3] [%] | % cells in cell cycle phase S [3] [%] | % cells in cell cycle phase aneuploid [3] [%] | % cells in cell cycle phase subG1 [3] [%] | chromosome missegregation (subG1 or aneuploid DNA content) (150 nM)
ISIS 328707: SEQ ID NO: 616, targeting miR-100-1 (eG*e[5mC]*eA*eA*e[5mC]*dA*dG*dG*d[5mC]*d[5mC]*dT*d[5mC]*dA*dA*dT*eA*eT*e[5mC]*eT*eT) | G2/M-phase |  |  |  |  |  |  |  |  |  |  |  |  |  |  |  |  |  | 
328749 (antisense e[5mC]*eA*eG*e[5mC]*e[5mC]*dT*dG*d[5mC]*d[5mC]*dA*d[5mC]*d[5mC]*dG*d[5mC]*d[5mC]*eG*e[5mC]*eT*eT*eT) [compound 328749] |  | 138% | 126% | 110% | 82 | 312% | 37% | 246% | 129% | 65% | 962 |  |  |  |  |  |  |  | 
338713 (antisense ACCTCTCAGGAAGACGGACT; all 2'-MOE, all phosphorothioate, methylation of C not given here) [compound 338713] |  | 187% | 152% | 101% | 72 | 93% | 95% | 109% | 104% | 194% | 426 |  |  |  |  |  |  |  | 
328337 (eG*e[5mC]*eT*eA*eG*dA*dT*dA*d[5mC]*dA*dA*dA*dG*dA*dT*eG*eG*eA*eA*eA) [compound 328337] |  | 104% and 64% | 106% and 108% | 113% and 109% | 88 | 107% and 99% | 92% and 73% | 119% and 135% | 105% and 143% | 108% and 74% |  |  |  |  |  |  |  |  | 
GCCAAGGCGTGACATGATAT (chemistry not given here) [ISIS 25691, 5-10-5 2′-MOE gapmer PS targeted to Drosha RNase III mRNA] |  |  |  |  |  |  |  |  |  |  |  | increased percentage of cells in S-phase as well as a significant percentage of cells in the subG1 and aneuploid categories |  |  |  |  |  |  | 
ISIS 338678: SEQ ID NO: 505, targeted to the mir-205 pri-miRNA (CTGGTTGGGTATGAGACAGA; all 2'-MOE, all phosphorothioate, methylation of C not given here) |  |  |  |  |  |  |  |  |  |  |  |  | G2/M-phase |  |  |  |  |  | 
338826 (antisense CGGATCCTGTTACCTCACCA; all 2'-MOE, all phosphorothioate, methylation of C not given here) [compound 338826] |  | 138% | 148% | 90% | 79 | 145% | 61% | 182% | 124% | 137% | 696 |  |  |  |  |  |  |  | 
328674 (eT*eG*e[5mC]*e[5mC]*e[5mC]*dT*dG*d[5mC]*dT*d[5mC]*dA*dG*dA*dG*d[5mC]*e[5mC]*e[5mC]*eT*eA*eG; antisense) [compound 328674] |  | 69% | 125% | 84% | 93 | 564% | 69% | 109% | 160% | 134% | 1663 |  |  |  |  |  |  |  | 
338678 (antisense CTGGTTGGGTATGAGACAGA; all 2'-MOE, all phosphorothioate, methylation of C not given here) [compound 338678] |  | 202% | 122% | 131% | 75 | 162% | 81% | 188% | 78% | 179% | 1158 |  |  | 103 | 105 | 94 | 132 | 129 | 
ISIS 338797: SEQ ID NO: 624, targeted to hypothetical miRNA-144 (CTGGGGAGGGGGTTAGCGTC; all 2'-MOE, all phosphorothioate, methylation of C not given here) |  |  |  |  |  |  |  |  |  |  |  |  |  |  |  |  |  |  | induce chromosome missegregation events
341788 (antisense AGCCAAGCTCAGACGGATCCGA; all 2'-MOE, all phosphorothioate, methylation of C not given here) [compound 341788] |  | 114% | 154% | 140% | 54 | 303% | 76% | 163% | 105% | 116% | 748 |  |  |  |  |  |  |  | 
ISIS 338833: SEQ ID NO: 660, targeted to hypothetical miRNA-181 (TCGTGCACCTGAGGAGTCTG; all 2'-MOE, all phosphorothioate, methylation of C not given here) |  |  |  |  |  |  |  |  |  |  |  |  |  |  |  |  |  |  | induce chromosome missegregation events
GGTACAATCAACGGTCGATGGT (anti-miR; chemistry not fully specified) [ISIS 327934, uniform 2′-MOE PS; targets mir-213] |  |  |  |  |  |  |  |  |  |  |  | G2/M- and S-phases |  |  |  |  |  |  | 
328780 (antisense eT*eG*eT*e[5mC]*eA*dT*dG*dG*dA*d[5mC]*dA*dG*dG*dA*dT*eG*eA*eA*eT*eA) [compound 328780] |  | 149% | 96% | 136% | 87 | 124% | 83% | 110% | 130% | 133% | 917 |  |  |  |  |  |  |  | 
328339 (eG*e[5mC]*eA*eG*e[5mC]*dG*d[5mC]*dA*dG*d[5mC]*dT*dG*dG*dT*d[5mC]*eT*e[5mC]*e[5mC]*e[5mC]*e[5mC]) [compound 328339] |  | 61% | 77% | 143% | 102 | 235% | 73% | 123% | 153% | 92% | 678 |  |  |  |  |  |  |  | 
